This note sets out measurements from ChEMBL document CHEMBL1201862, “PubChem BioAssay data set” (2004).

Calls of active or inactive are those of the source.

The target of one assay is CAAX prenyl protease 1 (Saccharomyces cerevisiae S288c, UniProt P47154). Put plainly: yeast CAAX protease Ste24 inhibition – biochemical, S. cerevisiae, plate reader, cherry-pick, dose response (AID 488815).
Assay [1] addresses Tyrosine-protein phosphatase non-receptor type 7 (Homo sapiens, UniProt P35236). The class given is functional.
The target of assay [2] is Glyceraldehyde-3-phosphate dehydrogenase (Homo sapiens, UniProt P04406).
Glyceraldehyde-3-phosphate dehydrogenase, sequence (P04406 whole entry): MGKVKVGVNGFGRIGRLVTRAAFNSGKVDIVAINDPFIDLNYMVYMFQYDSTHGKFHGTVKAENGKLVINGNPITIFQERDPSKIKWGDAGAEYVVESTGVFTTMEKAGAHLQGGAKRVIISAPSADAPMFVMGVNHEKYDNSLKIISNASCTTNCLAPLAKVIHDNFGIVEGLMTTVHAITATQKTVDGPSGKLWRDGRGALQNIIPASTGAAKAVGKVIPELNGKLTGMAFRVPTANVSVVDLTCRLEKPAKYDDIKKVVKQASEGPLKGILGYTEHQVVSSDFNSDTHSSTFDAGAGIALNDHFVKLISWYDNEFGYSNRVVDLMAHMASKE
Assay [3] concerns the target T1, Dual specificity protein phosphatase 6 (Rattus norvegicus, UniProt Q64346).
For assay [4], the target named is T1, Dual specificity protein phosphatase 6. The class given is functional.
Assay [5] in a line: Luminescence Cell-Based Dose Retest to Confirm Inhibitors of Cancer Stem Cells. [Related pubchem assays (depositor defined):AID2717, AID2721]. In kind it is functional. Particulars: Homo sapiens.
Assay [6] in a line: viability loss of HMLE_sh_eGFP cells – cell-based, luminescence, counter-screen for HMLE_sh_ECad selective toxicity project, dose response (AID 463074).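 Note: HMLE human mammary epithelial cells expressing control shRNA against eGFP.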 The class given is functional, Homo sapiens.
A short description of assay [7]: NIH-3T3 fibroblast cytotoxicity, dose response, cytotoxicity control, cell-based, fluorescence, Alamar Blue, secondary assay (AID 2327).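 Note: NIH-3T3 mouse fibroblasts cultured with fluconazole at 8 µg/mL.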 The class given is functional.
Assay [8] deals with T2, Delta-type opioid receptor (Homo sapiens, UniProt P41143). Put plainly: HTS Image-Based Screen for Antagonists of the DOR Receptor. [Related pubchem assays (depositor defined):AID1777, AID1785, AID1786, AID2133]. In kind it is functional.
T2 sequence (P41143 whole entry): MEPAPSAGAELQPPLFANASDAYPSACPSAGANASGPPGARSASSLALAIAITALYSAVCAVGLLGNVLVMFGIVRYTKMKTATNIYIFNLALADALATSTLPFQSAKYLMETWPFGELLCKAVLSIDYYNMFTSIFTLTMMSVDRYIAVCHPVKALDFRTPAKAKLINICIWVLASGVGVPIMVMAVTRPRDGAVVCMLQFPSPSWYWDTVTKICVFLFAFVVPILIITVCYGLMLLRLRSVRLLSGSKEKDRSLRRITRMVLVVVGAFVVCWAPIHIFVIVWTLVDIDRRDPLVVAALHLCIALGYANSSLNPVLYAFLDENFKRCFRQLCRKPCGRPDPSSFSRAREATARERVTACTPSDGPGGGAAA
Another assay concerns the target Mu-type opioid receptor (Homo sapiens, UniProt P35372). Description: HTS Image-Based Screen for Agonists of the MOR Receptor. [Related pubchem assays (depositor defined):AID1777, AID1785, AID1786, AID2133]. In kind it is functional.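 Note: imaging of beta-arrestin GFP recruitment into spots after receptor activation.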
For assay [9], the system named is Streptococcus sp. 'group A'. Description: Streptococcus pyogenes SK(-)GAS viability under kanamycin – luminescence, BacTiterGlo, confirmation, counter-screen for streptokinase expression inhibitor project, dose response (AID 1900). In kind it is functional, organism-based.
The target in assay [10] is T2, Delta-type opioid receptor. Put plainly: HTS Image-Based Screen for Agonists of the DOR Receptor. [Related pubchem assays (depositor defined):AID1777, AID1786, AID2133]. In kind it is functional.
In assay [11] the target is T3, Beta-galactosidase (Escherichia coli, UniProt Q8VNN2). Put plainly: PubChem AID 485352. In kind it is functional.
T3 sequence (Q8VNN2 whole entry): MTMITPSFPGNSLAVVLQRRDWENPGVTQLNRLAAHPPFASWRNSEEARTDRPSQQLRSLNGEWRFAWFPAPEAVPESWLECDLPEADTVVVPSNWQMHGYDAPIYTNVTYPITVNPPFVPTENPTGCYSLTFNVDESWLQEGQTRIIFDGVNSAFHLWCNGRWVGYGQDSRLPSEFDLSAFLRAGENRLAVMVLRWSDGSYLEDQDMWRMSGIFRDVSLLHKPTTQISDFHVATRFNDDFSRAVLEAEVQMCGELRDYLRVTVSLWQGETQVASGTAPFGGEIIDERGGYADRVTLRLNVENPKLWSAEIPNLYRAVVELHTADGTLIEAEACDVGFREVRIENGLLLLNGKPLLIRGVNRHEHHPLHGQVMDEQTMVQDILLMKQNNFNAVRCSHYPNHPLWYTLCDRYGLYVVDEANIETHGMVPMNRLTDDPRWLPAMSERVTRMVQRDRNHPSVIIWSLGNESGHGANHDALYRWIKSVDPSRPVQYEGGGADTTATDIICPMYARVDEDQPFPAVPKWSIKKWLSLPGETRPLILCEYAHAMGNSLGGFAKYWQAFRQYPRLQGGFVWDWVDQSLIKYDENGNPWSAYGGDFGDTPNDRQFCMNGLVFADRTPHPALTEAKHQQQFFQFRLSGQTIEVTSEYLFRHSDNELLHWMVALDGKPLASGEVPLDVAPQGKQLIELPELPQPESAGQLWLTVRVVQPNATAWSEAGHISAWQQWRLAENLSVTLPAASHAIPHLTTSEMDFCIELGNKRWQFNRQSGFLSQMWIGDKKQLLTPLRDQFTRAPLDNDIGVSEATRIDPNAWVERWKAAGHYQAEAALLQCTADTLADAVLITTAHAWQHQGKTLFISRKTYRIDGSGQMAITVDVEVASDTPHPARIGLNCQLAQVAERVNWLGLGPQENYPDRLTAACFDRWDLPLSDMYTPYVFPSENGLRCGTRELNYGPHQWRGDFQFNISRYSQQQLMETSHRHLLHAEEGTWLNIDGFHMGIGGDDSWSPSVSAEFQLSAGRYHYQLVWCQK
A short description of assay [12]: fluconazole-exposed Candida albicans growth modulators – fluorescence, retest, confirmation (AID 2467). In kind it is functional, cell-based.
For assay [13], the target named is T4, Type-1 angiotensin II receptor (Homo sapiens, UniProt P30556).
T4 sequence (P30556 whole entry): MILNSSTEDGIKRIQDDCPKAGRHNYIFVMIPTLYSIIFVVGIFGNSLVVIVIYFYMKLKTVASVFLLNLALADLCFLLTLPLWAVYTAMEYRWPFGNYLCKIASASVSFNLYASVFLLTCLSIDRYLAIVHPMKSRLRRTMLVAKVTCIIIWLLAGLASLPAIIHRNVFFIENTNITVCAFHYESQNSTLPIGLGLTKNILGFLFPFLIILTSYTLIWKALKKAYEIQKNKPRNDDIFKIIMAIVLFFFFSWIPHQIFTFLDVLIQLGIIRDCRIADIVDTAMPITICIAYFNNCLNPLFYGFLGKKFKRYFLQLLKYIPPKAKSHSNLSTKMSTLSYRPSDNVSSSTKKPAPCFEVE
Put plainly: antagonism of angiotensin II type 1 receptor – cell-based, uHTS hits, selectivity assay for APJ receptor antagonist project, dose response (AID 463214).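 Note: antagonist potency against angiotensin II stimulated AT1 response.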 The class given is functional.

Assay [14] addresses T5, Serine/threonine-protein phosphatase (Candida dubliniensis (strain CD36 / CBS 7987 / NCPF 3949 / NRRLY-17841) (Yeast), UniProt B9W6M3).
T5 sequence (B9W6M3 whole entry): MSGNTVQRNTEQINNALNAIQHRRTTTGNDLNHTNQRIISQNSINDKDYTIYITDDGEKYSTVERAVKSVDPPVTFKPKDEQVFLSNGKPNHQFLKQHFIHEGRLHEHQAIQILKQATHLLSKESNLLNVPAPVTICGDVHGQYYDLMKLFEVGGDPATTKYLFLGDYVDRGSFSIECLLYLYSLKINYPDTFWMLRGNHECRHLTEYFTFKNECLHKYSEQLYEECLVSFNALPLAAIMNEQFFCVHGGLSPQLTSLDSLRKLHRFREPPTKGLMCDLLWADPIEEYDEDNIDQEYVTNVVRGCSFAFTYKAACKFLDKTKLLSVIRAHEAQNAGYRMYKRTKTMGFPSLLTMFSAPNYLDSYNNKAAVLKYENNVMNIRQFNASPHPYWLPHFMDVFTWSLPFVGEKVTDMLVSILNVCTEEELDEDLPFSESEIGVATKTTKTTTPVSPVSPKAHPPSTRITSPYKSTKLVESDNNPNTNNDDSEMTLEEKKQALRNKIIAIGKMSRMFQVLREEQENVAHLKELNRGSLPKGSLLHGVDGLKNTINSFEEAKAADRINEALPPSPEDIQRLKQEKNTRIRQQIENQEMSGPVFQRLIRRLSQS
Description: blockers of CaCl2-induced CDRE-lacZ signaling – S. cerevisiae, luminescence, secondary, dose response (AID 2388).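 Note: yeast reporter cells carrying a calcineurin-responsive lacZ construct stimulated with calcium chloride; luminescent beta-galactosidase reporter signal in whole cells rather than isolated phosphatase activity; potency for inhibition where a drop in reporter signal means calcineurin blockade.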 The class given is functional, cell-based.

The target of assay [15] is T6, Kappa-type opioid receptor (Homo sapiens, UniProt P41145). The class given is functional.
T6 sequence (P41145 whole entry): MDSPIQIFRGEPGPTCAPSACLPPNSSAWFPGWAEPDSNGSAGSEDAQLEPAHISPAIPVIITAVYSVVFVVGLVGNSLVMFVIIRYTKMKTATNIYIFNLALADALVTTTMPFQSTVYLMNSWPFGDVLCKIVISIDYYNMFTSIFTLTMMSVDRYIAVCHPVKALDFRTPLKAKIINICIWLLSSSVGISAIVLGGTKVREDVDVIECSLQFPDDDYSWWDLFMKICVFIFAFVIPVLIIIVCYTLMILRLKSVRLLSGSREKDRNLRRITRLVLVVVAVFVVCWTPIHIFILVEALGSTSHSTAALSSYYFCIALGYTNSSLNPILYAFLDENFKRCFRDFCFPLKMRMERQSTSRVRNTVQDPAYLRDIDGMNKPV
In assay [16] the target is T3, Beta-galactosidase. The class given is functional.
The target of assay [17] is T6, Kappa-type opioid receptor. In kind it is functional. The source holds these as a separate data set.
A further assay relates to Streptococcus. Description: GAS UMAA2166 growth inhibition – luminescence, BacTiterGlo, counter-screen for streptokinase expression inhibitor project, dose response (AID 1915).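 Note: potency for reduction of bacterial viability or growth.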 The class given is functional, organism-based.
Another assay concerns the target T7, Bcl-2-related protein A1 (Mus musculus, UniProt Q07440).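 Note: confirmatory dose–response counterscreen on Bfl-1, used to check hits from a UBC13 polyubiquitin inhibitor campaign.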
T7 sequence (Q07440 whole entry): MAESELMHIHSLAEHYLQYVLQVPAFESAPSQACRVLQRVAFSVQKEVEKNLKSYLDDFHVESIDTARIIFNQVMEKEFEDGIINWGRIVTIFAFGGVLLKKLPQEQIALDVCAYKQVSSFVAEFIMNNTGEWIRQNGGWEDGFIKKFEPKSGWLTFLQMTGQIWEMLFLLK
In kind it is functional.

Assay [18] concerns the target T8, Ubiquitin-conjugating enzyme E2 N (Homo sapiens, UniProt P61088).
T8 sequence (P61088 whole entry): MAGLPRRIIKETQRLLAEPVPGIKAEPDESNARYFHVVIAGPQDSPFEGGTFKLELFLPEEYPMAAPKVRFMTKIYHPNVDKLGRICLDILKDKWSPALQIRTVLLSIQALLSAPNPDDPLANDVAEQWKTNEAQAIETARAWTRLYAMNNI
In kind it is functional.

For assay [19], the target named is T8, Ubiquitin-conjugating enzyme E2 N. In kind it is functional. The source holds these as a separate data set.
A further assay concerns the target Cytochrome P450 2C19 (Homo sapiens, UniProt P33261). Put plainly: Cytochrome panel assay with activity outcomes. Panel member name: p450-cyp2c19 Compounds with AC50 equal or less than 10 uM are considered active. In kind it is functional. Conditions: read-out: AC50.
In assay [20] the test system is Vero. Description: cells. Conditions: Chlorocebus sabaeus. The class given is functional, cell-based.
Assay [21] deals with Vero. Put plainly: cells. Conditions: Chlorocebus sabaeus. In kind it is functional.
In assay [22] the target is ATP-dependent molecular chaperone HSP82 (Candida albicans (strain WO-1) (Yeast), UniProt C4YTQ8). Description: steroid-induced GRE reporter decrease in yeast – S. cerevisiae, luminescence, Hsp90 inhibitor project, dose response (AID 2400).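 Note: beta-galactosidase luminescence from glucocorticoid response element reporter as proxy for Hsp90 function; inhibitor potency where signal loss means Hsp90 inhibition.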 In kind it is functional, cell-based.
ATP-dependent molecular chaperone HSP82, sequence (C4YTQ8 whole entry): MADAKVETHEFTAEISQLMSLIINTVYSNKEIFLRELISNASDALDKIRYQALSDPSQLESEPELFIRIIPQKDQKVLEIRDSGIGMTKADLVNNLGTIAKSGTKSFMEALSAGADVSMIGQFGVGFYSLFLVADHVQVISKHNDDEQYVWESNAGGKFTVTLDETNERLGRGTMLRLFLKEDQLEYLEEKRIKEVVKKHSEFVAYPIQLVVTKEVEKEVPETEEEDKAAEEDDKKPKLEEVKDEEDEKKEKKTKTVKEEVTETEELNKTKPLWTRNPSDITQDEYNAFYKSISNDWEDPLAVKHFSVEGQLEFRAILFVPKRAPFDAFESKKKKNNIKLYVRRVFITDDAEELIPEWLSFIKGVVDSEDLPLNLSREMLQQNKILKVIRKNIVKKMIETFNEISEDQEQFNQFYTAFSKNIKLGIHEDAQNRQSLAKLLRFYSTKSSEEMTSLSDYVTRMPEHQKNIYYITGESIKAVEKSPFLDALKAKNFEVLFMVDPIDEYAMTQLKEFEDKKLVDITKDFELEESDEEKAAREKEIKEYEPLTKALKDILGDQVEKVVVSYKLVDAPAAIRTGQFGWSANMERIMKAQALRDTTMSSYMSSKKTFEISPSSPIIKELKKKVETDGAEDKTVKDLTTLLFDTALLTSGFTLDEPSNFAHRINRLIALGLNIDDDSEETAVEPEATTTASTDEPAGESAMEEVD
Assay [23] can be described thus: reduction of Shn3 3'UTR-driven luciferase in osteoblasts – cell-based, Clone20 osteoblasts, firefly luciferase, cherry-picked, dose response (AID 624132).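 Note: firefly luciferase luminescence from reporter carrying the Shn3 3'UTR in osteoblasts.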 In kind it is functional.
A short description of assay [24]: loss of viability in HepG2 cells – cell-based, CellTiter-Glo, cherry-picked, cytotoxicity control for Shn3 inhibitor project, dose response (AID 624134). The class given is functional.
Assay [25] is described as follows: non-specific 3'UTR reporter inhibition in Clone20-Shn3RL – cell-based, Renilla luciferase, cherry-picked, counter-screen for Shn3 inhibitor project, dose response (AID 624133). In kind it is functional.
A short description of assay [26]: Luminescence Cell-Based/Microorganism Confirmation at Dose of Inhibitors of Trypanosoma cruzi Infection. [Related pubchem assays: 1885, 1968 ]. In kind it is functional.
A short description of assay [27]: Trypanosoma cruzi growth suppression in host cells – NIH3T3 host cells, beta-gal luminescence, confirmation (AID 2044).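 Note: intracellular parasites grown in NIH/3T3 mouse fibroblasts as host cells; luminescent beta-galactosidase reporter signal from transgenic T. cruzi replicating inside host cells; inhibitors lower the luminescence signal.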 The class given is functional, cell-based.
Assay [28] is described as follows: Luminescence Cell-Based Secondary HTS screen to identify cytotoxic compounds of NIH3T3 cells. [Related pubchem assays: 1885, 1968 ]. In kind it is functional.
Assay [29] is described as follows: NIH3T3 cell viability loss – ATP luminescence, mouse fibroblasts, counter-screen, dose response (AID 2010).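 Note: cells exposed to compound for about 90 hours before reading.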 The class given is functional, cell-based.
The nature of assay [30]: T. cruzi infection blockers in NIH3T3 cells – beta-gal luminescence, NIH3T3 host cells, confirmation (AID 2630). The class given is functional, cell-based. Conditions: Mus musculus.
The target of assay [31] is Lysine-specific demethylase 4C (Homo sapiens, UniProt Q9H3R0). Put plainly: inhibition of JMJD2C H3K9me3 demethylation – biochemical, DELFIA europium, cherry-picked samples, dose response (AID 488835). In kind it is functional.
Lysine-specific demethylase 4C, sequence (Q9H3R0 whole entry): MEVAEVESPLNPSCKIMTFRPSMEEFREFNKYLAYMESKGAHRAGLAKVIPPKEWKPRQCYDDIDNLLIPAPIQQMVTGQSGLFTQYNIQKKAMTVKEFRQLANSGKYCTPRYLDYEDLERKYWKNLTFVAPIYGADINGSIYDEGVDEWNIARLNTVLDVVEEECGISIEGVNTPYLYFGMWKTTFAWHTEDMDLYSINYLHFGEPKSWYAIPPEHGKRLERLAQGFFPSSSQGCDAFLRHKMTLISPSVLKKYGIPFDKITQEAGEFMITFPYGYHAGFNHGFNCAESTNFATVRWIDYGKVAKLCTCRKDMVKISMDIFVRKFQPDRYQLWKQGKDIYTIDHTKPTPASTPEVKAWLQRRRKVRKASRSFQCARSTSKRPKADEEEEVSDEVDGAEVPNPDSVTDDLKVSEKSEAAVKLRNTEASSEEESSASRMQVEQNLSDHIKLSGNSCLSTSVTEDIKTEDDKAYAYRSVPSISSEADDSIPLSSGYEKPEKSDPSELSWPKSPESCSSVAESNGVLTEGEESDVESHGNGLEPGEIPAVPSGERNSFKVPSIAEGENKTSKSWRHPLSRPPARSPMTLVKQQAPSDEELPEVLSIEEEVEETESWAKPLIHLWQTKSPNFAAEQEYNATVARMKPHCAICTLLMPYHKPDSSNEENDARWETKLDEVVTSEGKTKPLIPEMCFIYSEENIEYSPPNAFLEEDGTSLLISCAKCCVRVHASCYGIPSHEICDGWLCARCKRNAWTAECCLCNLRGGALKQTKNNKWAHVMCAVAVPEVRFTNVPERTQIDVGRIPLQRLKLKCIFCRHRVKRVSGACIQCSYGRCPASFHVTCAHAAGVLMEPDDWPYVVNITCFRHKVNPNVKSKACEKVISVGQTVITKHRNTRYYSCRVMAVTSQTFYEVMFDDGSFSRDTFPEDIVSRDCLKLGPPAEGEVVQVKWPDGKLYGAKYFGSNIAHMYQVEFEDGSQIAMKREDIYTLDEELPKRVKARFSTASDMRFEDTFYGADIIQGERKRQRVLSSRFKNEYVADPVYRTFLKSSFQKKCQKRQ

T1 sequence (Q64346 whole entry): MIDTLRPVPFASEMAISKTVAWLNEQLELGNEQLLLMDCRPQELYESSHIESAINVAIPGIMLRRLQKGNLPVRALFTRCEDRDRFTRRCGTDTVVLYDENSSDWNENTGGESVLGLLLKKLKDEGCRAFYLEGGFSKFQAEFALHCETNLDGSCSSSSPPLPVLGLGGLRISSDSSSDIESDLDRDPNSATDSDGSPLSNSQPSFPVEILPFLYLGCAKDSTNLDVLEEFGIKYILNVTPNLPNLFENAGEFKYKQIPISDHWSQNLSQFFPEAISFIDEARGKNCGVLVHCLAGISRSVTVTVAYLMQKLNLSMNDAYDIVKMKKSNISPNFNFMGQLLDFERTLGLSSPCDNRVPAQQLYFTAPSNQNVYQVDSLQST
Cytochrome P450 2C19, sequence (P33261 whole entry): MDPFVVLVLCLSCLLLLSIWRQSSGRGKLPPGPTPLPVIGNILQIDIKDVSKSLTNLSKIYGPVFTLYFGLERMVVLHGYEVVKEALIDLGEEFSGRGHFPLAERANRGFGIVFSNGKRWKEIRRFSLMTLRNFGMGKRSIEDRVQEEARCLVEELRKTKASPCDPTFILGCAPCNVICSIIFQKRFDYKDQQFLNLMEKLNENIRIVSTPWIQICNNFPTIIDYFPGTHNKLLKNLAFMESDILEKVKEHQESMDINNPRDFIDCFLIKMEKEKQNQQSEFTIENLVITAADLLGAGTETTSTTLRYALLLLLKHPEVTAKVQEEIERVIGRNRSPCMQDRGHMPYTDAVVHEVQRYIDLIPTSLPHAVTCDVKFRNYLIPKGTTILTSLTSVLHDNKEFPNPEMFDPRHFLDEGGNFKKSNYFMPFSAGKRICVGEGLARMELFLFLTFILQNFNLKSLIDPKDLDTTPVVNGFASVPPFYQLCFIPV

For `Cc1cc(N2CCOCC2)n2cc(-c3ccccc3)nc2n1`, at CAAX prenyl protease 1, the concentration at half-maximal activity (AC50) was 38.6 µM (active).

With `Cc1ccccc1Cn1c(=O)n(-c2ccccc2)c(=O)n([C@@H](C)C(N)=O)c1=O`, the IC50 is > 100 µM (not active) in [1], > 100 µM (not active) in assay [2], > 100 µM (inactive) in assay [3] and > 100 µM (inactive) in assay [4].

Consider `COc1cc(OC)cc(-c2c(-c3cccs3)c3cc(-c4ccc(N(C)C)nc4)ccc3n2C)c1`, for which the AC50 is 28.5 µM (active) in [5] and 109 µM (active) in [6].

On to `CCCOc1ccc(C(=O)NNC(=S)NC(=O)CC)cc1`, for which the EC50 in assay [7] was 35.1 µM (active); on Mu-type opioid receptor it was > 32 µM (inactive); in assay [9], 0.612 µM (active); in assay [10], > 32 µM (inactive); on Beta-galactosidase [11], > 40 µM (inactive); in assay [12] it was 0.384 µM (active). The EC50 in assay [14] is > 180 µM (inactive); at Beta-galactosidase [16] it was > 31.5 µM (inactive); with Streptococcus, 2.48 µM (active); in [22] it was 20.1 µM (active). The IC50 in assay [8] is > 32 µM (inactive); in assay [13] it was 7.14 µM (active); in [15], 7.95 µM (active); in assay [17], > 32 µM; on Bcl-2-related protein A1, > 20 µM (inactive); in assay [18], 9.02 µM (active). Moreover, the results for the half-maximal inhibitory concentration (IC50) (in assay [19]; in the assay with Vero [20]) were 7.86 µM (active) and > 25 µM (active), respectively. The half-maximal activity concentration (AC50) at Cytochrome P450 2C19 is 20 µM (inconclusive); in [23], 24.4 µM (active); in assay [24], > 70 µM (inactive); in assay [25], 4.18 µM (active). Besides, the CC50 in the assay with Vero [21] was 21.3 µM (active).

As for `O=S(=O)(NCC(c1cccnc1)N1CCN(c2ccc(F)cc2)CC1)c1ccccc1` (configuration not stated), the EC50 in [26] is 0.057 µM (active); in assay [27], < 0.1 µM (active); in [28] it was > 195 µM (not active); in assay [29], > 60 µM (not active); in assay [30], 0.057 µM (active); in the assay “cells”, 0.066 µM (active).

For `COc1ccc(-c2nc(C#N)c(NCc3ccc(F)cc3)o2)cc1OC`, the AC50 in assay [31] was 59.4 µM (active).
